Ends that are not written are not given here.
Experiments:
MN9D cells = assay: Oxygen consumption rate (Seahorse XF-24); type: cell-based
Description: Real-time measurement of oxygen consumption rate (OCR) of intact DNSP-11-treated MN9D cells, in the presence and absence of Complex I toxins, rotenone 1-5 ηM or TaClo 100-150 μM, were performed utilizing the Seahorse XF-24 extracellular flux analyzer. This instrument allows the simultaneous measurement of the mitochondrial bioenergetics from […] cell culture samples, without the mitochondrial isolation (and thus higher quantities of sample) needed for the standard (lower throughput) Clark-type electrode chamber. Details regarding the methods used for the Seahorse analysis were recently described in detail (Sauerbeck et al., Journal of Neuroscience Methods 198:36-43 (2011) incorporated herein by reference).
Briefly, following sensor preparation, calibration, and dose optimization, the basal and maximal oxygen consumption rates (OCR) were measured in intact MN9D neuronal cells in the absence and presence of 1 μM DNSP-11. […] Following electron transport chain uncoupling by 100 nM FCCP to measure the maximal OCR, treatment of MN9D neurons with DNSP-11 had nearly a 60% increase (p<0.001) versus control.

[1] = Distribution, uptake and half-life of DNSP-11 in the brain (immunostaining); type: in vivo, rat; conditions: male, F344, rat, brain, 30 ug; 30 μg intracerebral injection
Description: (§1) Additional studies were carried out to determine if DNSP-11 is actively taken up into dopamine-containing neurons in vivo. A single administration of 30 μg of DNSP-11 was delivered into the rat substantia nigra. Animals were euthanized at 0.5, 1.5, 4, 24 and 48 hrs after injection to visualize distribution of DNSP-11 using antibodies raised against DNSP-11 and the ubiquitinated form of DNSP-11. DNSP-11 antibodies labelled the cytosol and neurites of neurons in the area of the substantia nigra within 30 minutes after injection. DNSP-11 was taken up by neurons in both the substantia nigra, pars reticulata (SNr) and substantia nigra, pars compacta (SNc). […] Higher power micrographs from the SNc.
(§2) To assess the distribution, uptake and degradation of DNSP-11 in the brain, young adult male F344 rats, as a test organism, received injections of 30 μg DNSP-11 in the substantia nigra, hippocampus or cortex. They were euthanized by anesthesia overdose at various time points from 30 minutes to 48 hrs later and perfused through the heart with saline followed by paraformaldehyde.
(§3) Our standard published procedures for immuncytochemical staining were used (e.g. Gash D M et al., J Comp Neurol. 1995 December 18;363(3):345-58., Grondin et al., 2002; Ai et al., 2003). A polyclonal antibody was generated against DNSP-11 in rabbits (Alpha Diagnostic International, San Antonio, Tex.). Endogenous peroxidases were inactivated by incubation with 0.2% hydrogen peroxide (H2O2) for 10 minutes and background blocked with 4% normal serum, 1% bovine serum albumin (BSA) for 1 hour. Free floating sections were incubated in primary antisera. Sections were then exposed to the appropriate biotinylated IgG (Vecto Labs, Burlingame, Calif.) for 1 hour and then incubated in avidin-biotin-peroxidase complex using Elite ABC Vectastain Kits (Vector Labs) for 1 hour. Some sections were double-labeled using procedures following our published procedures for immunocytochemical staining to identify cells with two markers (e.g. Ai et al., 2003).
(§4) Controls for immunostaining included the omission of primary antibodies and replacement of primary antibodies with normal serum of the same species.

rat brain neurons = assay: as above; type: in vivo
Description: as §1, §2, §3, §4

[2] = 30 μg bolus into mid-substantia nigra

## PPEAPAEDRSL-NH2 [DNSP-11, PPEAPAEDRSL-amide]
MN9D cells; 1 nM, 2.5 nM and 5 nM rotenone
  basal and maximal OCRs, protection from rotenone: protection
MN9D cells; 1 μM DNSP-11
  basal OCR vs control treatment: no significant effect
  reserve respiratory capacity (ratio maximal/basal OCR): significantly increases
MN9D cells; 1 μM DNSP-11, uncoupling by 100 nM FCCP, p<0.001
  maximal OCR, increase versus control: ~60%
MN9D cells; 100 μM and 150 μM TaClo
  basal and maximal OCRs, protection from TaClo: protection
[1]
  half-life: < 24 h
Rat brain neurons; [2]
  spread in the anterior-posterior plane: ~3 mm
  spread in the medial-lateral plane: ≤ 2 mm
Rat brain neurons; 30 μg injected into rat substantia nigra (all brain areas evaluated)
  time to uptake by neurons after injection: ≤ 30 min
Rat brain neurons; 3 hrs after injection into substantia nigra
  immunohistochemical staining for DNSP-11: diminished
Rat brain neurons; 48 hours post peptide administration
  immunohistochemical staining for DNSP-11: no evidence of DNSP-11
Rat brain neurons; stereotaxic injections of 30 μg
  uptake into neurons of striatum, hippocampus and cortex: Uptake was observed into neurons

Source: patent US9402875B2, “Amidated dopamine neuron stimulating peptide restoration of mitochondrial activity” (University of Kentucky Research Foundation, priority 2006, dated 2016)
